Results published in patent publication US12624017B2, “Salt form of isoquinolinone type compound as rock inhibitor and preparation method therefor” (GUANGZHOU OCUSUN OPHTHALMIC BIOTECHNOLOGY CO., LTD., priority 2020, dated 2026).

Legend:
[1] = Pharmacokinetic test in aqueous humor after eye drops; format: in vivo, New Zealand white rabbits; details: eye drops 0.5 mg/eye
Excerpt: The compound was a prodrug molecule containing an ester functional group, which can be hydrolyzed into an active drug molecule (parent drug) under the action of abundant ester hydrolase in the eye tissue when administered with eye drops. In this experiment, the production rate of the active pharmaceutical ingredients in vivo and the exposure amount of the active pharmaceutical ingredients were detected.
Male New Zealand white rabbits, aged 3 to 6 months, weighted 2.0 to 5.0 kg, purchased from Pizhou Oriental Breeding Co., Ltd.
The used solvent was 1.2% hydroxypropyl methylcellulose E5/20.5% poloxamer P407/1.6% poloxamer P188.
The dosage of eye drops was 0.5 mg/eye, administrated in both eyes. Aqueous humor samples were collected at 0.25 h, 0.5 h, 2 h, 4 h, 8 h, and 24 h after administration. All samples were quantitatively detected by liquid chromatography coupled with mass spectrometry-mass spectrometry in the aqueous humor of the experimental animals. The measured concentration values were calculated by WinNonlin non-compartment model according to the concentration-time data of aqueous humor, such as half-life, peak concentration, peak time, unit exposure amount of aqueous humor, etc.

[2] = test system: New Zealand rabbits with normal intraocular pressure; test: Intraocular pressure reduction, normal intraocular pressure, eye drops in both eyes for 14 days (Operation I); format: in vivo, New Zealand white rabbits; details: for Change in intraocular pressure: vs negative control
Excerpt: An intraocular pressure reduction effect and potential ocular toxicity of the compound of formula (I) were inspected with rabbits with normal intraocular pressure by repeated administration of eye drops for 14 days.
Male New Zealand white rabbits, aged 97 to 127 days, weighted 2.6-3.5 kg, purchased from Pizhou Oriental Breeding Co., Ltd.
The Male New Zealand white rabbits were randomly divided into 7 groups according to body weights, 6 rabbits/group. The animals in Groups 1 to 7 were administrated dropwise with a solvent/control/test article in both eyes in an administration volume of 50 μL/eye, once a day for 14 consecutive days, and the day of first administration was recorded as Day 1. The intraocular pressures of the animals were measured before administration, as well as at 1, 2, 4, 6, 8 and 10 h after administration, respectively. On Days 2 to 14, the intraocular pressures of animals in the K-115 administration group were measured at 1 h after daily administration; and intraocular pressures of the animals in the remaining groups were measured at 4 h after daily administration.

[3] = 0.5 mg/mL once a day, Day 2, 4 h after daily administration
[4] = 0.5 mg/mL once a day, Day 3, 4 h after daily administration
[5] = 0.5 mg/mL once a day, Day 4, 4 h after daily administration
[6] = 0.5 mg/mL once a day, Day 5, 4 h after daily administration
[7] = 0.5 mg/mL once a day, Day 6, 4 h after daily administration
[8] = 0.5 mg/mL once a day, Day 7, 4 h after daily administration
[9] = 0.5 mg/mL, Day 1, 1 h after administration
[10] = 0.5 mg/mL, Day 1, 2 h after administration
[11] = 0.5 mg/mL, Day 1, 4 h after administration
[12] = 0.5 mg/mL, Day 1, 6 h after administration
[13] = 0.5 mg/mL, Day 1, 8 h after administration
[14] = 0.5 mg/mL, Day 1, 10 h after administration
[15] = 0.5 mg/mL, Day 1, before administration
[16] = 1.0 mg/mL once a day, Day 2, 4 h after daily administration
[17] = 1.0 mg/mL once a day, Day 3, 4 h after daily administration
[18] = 1.0 mg/mL once a day, Day 4, 4 h after daily administration
[19] = 1.0 mg/mL once a day, Day 5, 4 h after daily administration
[20] = 1.0 mg/mL once a day, Day 6, 4 h after daily administration
[21] = 1.0 mg/mL once a day, Day 7, 4 h after daily administration
[22] = 1.0 mg/mL, Day 1, 1 h after administration
[23] = 1.0 mg/mL, Day 1, 2 h after administration
[24] = 1.0 mg/mL, Day 1, 4 h after administration
[25] = 1.0 mg/mL, Day 1, 6 h after administration
[26] = 1.0 mg/mL, Day 1, 8 h after administration
[27] = 1.0 mg/mL, Day 1, 10 h after administration
[28] = 1.0 mg/mL, Day 1, before administration
[29] = 2.0 mg/mL once a day, Day 2, 4 h after daily administration
[30] = 2.0 mg/mL once a day, Day 3, 4 h after daily administration
[31] = 2.0 mg/mL once a day, Day 4, 4 h after daily administration
[32] = 2.0 mg/mL once a day, Day 5, 4 h after daily administration
[33] = 2.0 mg/mL once a day, Day 6, 4 h after daily administration
[34] = 2.0 mg/mL once a day, Day 7, 4 h after daily administration

SMILES: Cc1ccc(C(=O)OCn2cc(C)c3c(S(=O)(=O)N4CC[C@H](N)C4)cccc3c2=O)c(C)c1 [Compound of formula (I)]
- Exposure amount of the active drug (conclusion) [1]: significantly increased
- Average intraocular pressure in both eyes [2, 3]: 7.94 mmHg
- Change in intraocular pressure [2, 3]: 3.14 mmHg
- Average intraocular pressure in both eyes [2, 4]: 7.31 mmHg
- Change in intraocular pressure [2, 4]: 3.08 mmHg
- Average intraocular pressure in both eyes [2, 5]: 7.78 mmHg
- Change in intraocular pressure [2, 5]: 2.83 mmHg
- Average intraocular pressure in both eyes [2, 6]: 7.19 mmHg
- Change in intraocular pressure [2, 6]: 3.78 mmHg
- Average intraocular pressure in both eyes [2, 7]: 6.61 mmHg
- Change in intraocular pressure [2, 7]: 2.7 mmHg
- Average intraocular pressure in both eyes [2, 8]: 6.00 mmHg
- Change in intraocular pressure [2, 8]: 4.06 mmHg
- Change in intraocular pressure ([2]; 0.5 mg/mL once a day, Day 8, 4 h after daily administration): 4.2 mmHg
- Change in intraocular pressure ([2]; 0.5 mg/mL once a day, Day 9, 4 h after daily administration): 3.25 mmHg
- Change in intraocular pressure ([2]; 0.5 mg/mL once a day, Day 10, 4 h after daily administration): 3 mmHg
- Change in intraocular pressure ([2]; 0.5 mg/mL once a day, Day 11, 4 h after daily administration): 3.25 mmHg
- Change in intraocular pressure ([2]; 0.5 mg/mL once a day, Day 12, 4 h after daily administration): 3.28 mmHg
- Change in intraocular pressure ([2]; 0.5 mg/mL once a day, Day 13, 4 h after daily administration): 3.31 mmHg
- Change in intraocular pressure ([2]; 0.5 mg/mL once a day, Day 14, 4 h after daily administration): 3.72 mmHg
- Average intraocular pressure in both eyes [2, 9]: 8.83 mmHg
- Change in intraocular pressure [2, 9]: 1.48 mmHg
- Average intraocular pressure in both eyes [2, 10]: 7.56 mmHg
- Change in intraocular pressure [2, 10]: 3.41 mmHg
- Average intraocular pressure in both eyes [2, 11]: 7.11 mmHg
- Change in intraocular pressure [2, 11]: 4.2 mmHg
- Average intraocular pressure in both eyes [2, 12]: 9.61 mmHg
- Change in intraocular pressure [2, 12]: 2.33 mmHg
- Average intraocular pressure in both eyes [2, 13]: 9.06 mmHg
- Change in intraocular pressure [2, 13]: 3.91 mmHg
- Average intraocular pressure in both eyes [2, 14]: 9.97 mmHg
- Change in intraocular pressure [2, 14]: 4.45 mmHg
- Average intraocular pressure in both eyes [2, 15]: 10.11 mmHg
- Change in intraocular pressure [2, 15]: −0.22 mmHg
- Average intraocular pressure in both eyes [2, 16]: 7.64 mmHg
- Change in intraocular pressure [2, 16]: 3.44 mmHg
- Average intraocular pressure in both eyes [2, 17]: 7.50 mmHg
- Change in intraocular pressure [2, 17]: 2.89 mmHg
- Average intraocular pressure in both eyes [2, 18]: 7.33 mmHg
- Change in intraocular pressure [2, 18]: 3.28 mmHg
- Average intraocular pressure in both eyes [2, 19]: 7.44 mmHg
- Change in intraocular pressure [2, 19]: 3.53 mmHg
- Average intraocular pressure in both eyes [2, 20]: 6.92 mmHg
- Change in intraocular pressure [2, 20]: 2.39 mmHg
- Average intraocular pressure in both eyes [2, 21]: 7.00 mmHg
- Change in intraocular pressure [2, 21]: 3.06 mmHg
- Change in intraocular pressure ([2]; 1.0 mg/mL once a day, Day 8, 4 h after daily administration): 4.03 mmHg
- Change in intraocular pressure ([2]; 1.0 mg/mL once a day, Day 9, 4 h after daily administration): 2.5 mmHg
- Change in intraocular pressure ([2]; 1.0 mg/mL once a day, Day 10, 4 h after daily administration): 2.44 mmHg
- Change in intraocular pressure ([2]; 1.0 mg/mL once a day, Day 11, 4 h after daily administration): 2.19 mmHg
- Change in intraocular pressure ([2]; 1.0 mg/mL once a day, Day 12, 4 h after daily administration): 2.64 mmHg
- Change in intraocular pressure ([2]; 1.0 mg/mL once a day, Day 13, 4 h after daily administration): 3.33 mmHg
- Change in intraocular pressure ([2]; 1.0 mg/mL once a day, Day 14, 4 h after daily administration): 3.53 mmHg
- Average intraocular pressure in both eyes [2, 22]: 7.08 mmHg
- Change in intraocular pressure [2, 22]: 3.23 mmHg
- Average intraocular pressure in both eyes [2, 23]: 6.67 mmHg
- Change in intraocular pressure [2, 23]: 4.3 mmHg
- Average intraocular pressure in both eyes [2, 24]: 6.44 mmHg
- Change in intraocular pressure [2, 24]: 4.87 mmHg
- Average intraocular pressure in both eyes [2, 25]: 8.00 mmHg
- Change in intraocular pressure [2, 25]: 3.94 mmHg
- Average intraocular pressure in both eyes [2, 26]: 9.22 mmHg
- Change in intraocular pressure [2, 26]: 3.75 mmHg
- Average intraocular pressure in both eyes [2, 27]: 10.56 mmHg
- Change in intraocular pressure [2, 27]: 3.86 mmHg
- Average intraocular pressure in both eyes [2, 28]: 9.94 mmHg
- Change in intraocular pressure [2, 28]: −0.05 mmHg
- Average intraocular pressure in both eyes [2, 29]: 7.03 mmHg
- Change in intraocular pressure [2, 29]: 4.05 mmHg
- Average intraocular pressure in both eyes [2, 30]: 7.25 mmHg
- Change in intraocular pressure [2, 30]: 3.14 mmHg
- Average intraocular pressure in both eyes [2, 31]: 6.86 mmHg
- Change in intraocular pressure [2, 31]: 3.75 mmHg
- Average intraocular pressure in both eyes [2, 32]: 6.47 mmHg
- Change in intraocular pressure [2, 32]: 4.5 mmHg
- Average intraocular pressure in both eyes [2, 33]: 5.92 mmHg
- Change in intraocular pressure [2, 33]: 3.39 mmHg
- Average intraocular pressure in both eyes [2, 34]: 5.78 mmHg
- Change in intraocular pressure [2, 34]: 4.28 mmHg
- Change in intraocular pressure ([2]; 2.0 mg/mL once a day, Day 8, 4 h after daily administration): 4.53 mmHg
- Change in intraocular pressure ([2]; 2.0 mg/mL once a day, Day 9, 4 h after daily administration): 3.72 mmHg
- Change in intraocular pressure ([2]; 2.0 mg/mL once a day, Day 10, 4 h after daily administration): 3.81 mmHg
- Change in intraocular pressure ([2]; 2.0 mg/mL once a day, Day 11, 4 h after daily administration): 3.66 mmHg
- Change in intraocular pressure ([2]; 2.0 mg/mL once a day, Day 12, 4 h after daily administration): 3.5 mmHg
